Laboratory results published in patent publication US7541336B2 (priority 2002, dated 2009).

Columns and labels:
[1] = target: T1, ryanodine receptor of Periplaneta americana origin (Periplaneta americana, UniProt A0ABQ8T696); assay: Ryanodine binding inhibition, crude ryanodine receptor of Periplaneta americana
T1 sequence (A0ABQ8T696 1-1387): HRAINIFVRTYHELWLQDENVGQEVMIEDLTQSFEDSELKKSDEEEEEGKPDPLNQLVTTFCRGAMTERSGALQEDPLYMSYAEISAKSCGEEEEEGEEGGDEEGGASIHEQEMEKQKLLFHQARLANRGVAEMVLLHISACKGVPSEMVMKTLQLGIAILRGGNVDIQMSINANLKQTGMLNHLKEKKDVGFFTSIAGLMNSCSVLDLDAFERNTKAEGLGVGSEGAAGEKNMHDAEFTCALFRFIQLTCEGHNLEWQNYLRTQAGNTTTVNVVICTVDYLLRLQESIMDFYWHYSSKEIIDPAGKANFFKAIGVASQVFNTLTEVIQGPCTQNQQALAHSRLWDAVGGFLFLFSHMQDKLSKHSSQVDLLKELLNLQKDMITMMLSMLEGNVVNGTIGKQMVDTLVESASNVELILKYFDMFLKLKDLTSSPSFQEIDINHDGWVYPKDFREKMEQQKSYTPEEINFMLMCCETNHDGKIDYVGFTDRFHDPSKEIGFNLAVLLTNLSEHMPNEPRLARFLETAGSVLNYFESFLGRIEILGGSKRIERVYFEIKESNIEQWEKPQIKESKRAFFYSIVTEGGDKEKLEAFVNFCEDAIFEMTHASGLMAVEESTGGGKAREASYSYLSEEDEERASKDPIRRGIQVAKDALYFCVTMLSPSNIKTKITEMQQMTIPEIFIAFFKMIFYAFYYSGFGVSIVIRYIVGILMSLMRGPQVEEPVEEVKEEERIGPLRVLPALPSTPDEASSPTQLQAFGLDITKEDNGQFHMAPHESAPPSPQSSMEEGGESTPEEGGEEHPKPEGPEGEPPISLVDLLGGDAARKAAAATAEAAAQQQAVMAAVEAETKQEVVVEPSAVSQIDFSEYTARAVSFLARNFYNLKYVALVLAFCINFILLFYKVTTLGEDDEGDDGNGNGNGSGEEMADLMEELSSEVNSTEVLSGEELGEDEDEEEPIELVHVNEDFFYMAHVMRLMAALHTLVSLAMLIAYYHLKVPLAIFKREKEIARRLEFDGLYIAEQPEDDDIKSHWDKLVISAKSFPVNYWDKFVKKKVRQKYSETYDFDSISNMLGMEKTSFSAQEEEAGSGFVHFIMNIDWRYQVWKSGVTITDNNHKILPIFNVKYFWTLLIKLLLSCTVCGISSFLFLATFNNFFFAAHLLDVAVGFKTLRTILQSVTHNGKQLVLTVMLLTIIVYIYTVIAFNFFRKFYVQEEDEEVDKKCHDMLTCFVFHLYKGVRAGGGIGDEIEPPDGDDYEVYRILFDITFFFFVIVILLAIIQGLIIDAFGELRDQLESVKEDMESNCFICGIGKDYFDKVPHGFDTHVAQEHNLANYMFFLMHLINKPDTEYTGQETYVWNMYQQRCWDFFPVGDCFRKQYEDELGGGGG
Procedure: (1) Preparation of the Crude Ryanodine Receptor Fraction of the Insect was Performed as Follows.
The thorax and legs of ten adult insects of Periplaneta americana were frozen with liquid nitrogen and finely cut, and homogenized three times in 15 ml of 50 mM Tris HCl buffer (pH 7.4) containing 4 μg/ml leupeptin and 3 μg/ml pepstatin by using a knife homogenizer at 0° C., 24,000 rpm for 30 sec. The homogenate was filtered using double layered cotton cloth and the filtrate was centrifuged at 4° C., 3,000 rpm for 20 minutes. The obtained supernatant was centrifuged at 4° C., 30,000 rpm for 30 minutes and the precipitate suspended in 1 ml of 20 mM Tris HCl buffer (pH 8.0) containing 0.3 M sucrose, 500 μM calcium chloride and 1.5 M potassium chloride and homogenized with glass potter to obtain crude ryanodine receptor fraction. The crude ryanodine receptor fraction was used by diluting about 7 times with the buffer A (20 mM Tris-HCl buffer (pH 8.0) containing 4 μg/ml aprotinin, 4 μgμml leupeptin, 0.3 M sucrose and 500 μM calcium chloride) immediately before use. […]
70 μl of the buffer A, 10 μl of ethanol solution of 0.1 nM ryanodine and 10 μl of 20 nM [9,21-^3H] […] Radioactivity was measured by measuring fluorescence intensity of the filter with using scintillation counter (Wallac Inc. the U.S., MicroBeta™ TriLux)

Solubility in solvent = type: physicochemical
[2] = target: ryanodine receptor of mouse origin (Mus musculus, UniProt E9PZQ0); assay: Ryanodine binding inhibition, crude mammalian ryanodine receptor
Procedure: (2) Preparation of Mammalian Crude Ryanodine Receptor Fraction was Performed as Follows.
Muscles of the hind legs of ICR mouse were finely cut, and 3.0 g thereof was homogenized at 0° C., 1,000 rpm for 3×30 sec using glass homogenizer in 15 ml of buffer B (20 mM Tris-HCl buffer (pH 8.0) containing 4 μg/ml aprotinin and 4 μg/ml leupeptin). The homogenate was transferred into the micro test tube, and the glass homogenizer was also washed with the 7.5 ml of buffer B, and the washed solution was also added to the micro test tube, which was stirred, then centrifuged by using ultracentrifuge cooled at 4° C., 25,000×g for 40 min. 2.4 ml of the buffer B was added to the obtained precipitate and suspended to obtain the crude ryanodine receptor fraction of mouse origin.
(4) Binding Activity of Crude Mammalian Ryanodine Receptor was Assayed aAs Follows.
70 μl of the buffer A, 10 μl of ethanol solution of 0.1 nM ryanodine and 10 μl of 20 nM [9,21-^3H] (N) ryanodine were added into the 96 well microplate (Corning Inc. the U.S.). 10 μl of crude ryanodine receptor fraction of mouse origin was added to initiate the reaction, and shaken at room temperature for 90 min. by using microplate mixer. […] Radioactivity was measured by measuring fluorescence intensity of the filter with using scintillation counter (Wallac Inc. the U.S., MicroBeta™ TriLux).

Caenorhabditis elegans = assay: Anti-nematode activity, 96 well plate; type: in vivo; details: at 20 μg/ml, observed after 2 days under microscope
Procedure: (§1) Methanol solution of FKI-1033 substance was added into 96 well plate (Corning Inc., the U.S.), removed off methanol in vacuo, added 250 μl of test medium (lecithin 0.01%, sodium hydrogen carbonate 7.5 mM, potassium chloride 7.5 mM, calcium chloride dihydrate 7.5 mM and magnesium sulfate heptahydrate 7.5 mM) and shaken for 15 min. 50 μl of buffer containing several nauplii of Artemia salina, which were hatched off in the buffer, was added thereto, and about ten nematodes, Caenorhabditis elegans, which were bred on agar medium for growth of nematode, were added thereto.

[3] = test system: nauplii of Artemia salina; assay: Anti-arthropod activity, 96 well plate; type: in vivo; details: at 20 μg/ml, observed after 2 days under microscope
Procedure: as §1

ryanodine receptor of mouse origin, sequence (E9PZQ0 whole entry): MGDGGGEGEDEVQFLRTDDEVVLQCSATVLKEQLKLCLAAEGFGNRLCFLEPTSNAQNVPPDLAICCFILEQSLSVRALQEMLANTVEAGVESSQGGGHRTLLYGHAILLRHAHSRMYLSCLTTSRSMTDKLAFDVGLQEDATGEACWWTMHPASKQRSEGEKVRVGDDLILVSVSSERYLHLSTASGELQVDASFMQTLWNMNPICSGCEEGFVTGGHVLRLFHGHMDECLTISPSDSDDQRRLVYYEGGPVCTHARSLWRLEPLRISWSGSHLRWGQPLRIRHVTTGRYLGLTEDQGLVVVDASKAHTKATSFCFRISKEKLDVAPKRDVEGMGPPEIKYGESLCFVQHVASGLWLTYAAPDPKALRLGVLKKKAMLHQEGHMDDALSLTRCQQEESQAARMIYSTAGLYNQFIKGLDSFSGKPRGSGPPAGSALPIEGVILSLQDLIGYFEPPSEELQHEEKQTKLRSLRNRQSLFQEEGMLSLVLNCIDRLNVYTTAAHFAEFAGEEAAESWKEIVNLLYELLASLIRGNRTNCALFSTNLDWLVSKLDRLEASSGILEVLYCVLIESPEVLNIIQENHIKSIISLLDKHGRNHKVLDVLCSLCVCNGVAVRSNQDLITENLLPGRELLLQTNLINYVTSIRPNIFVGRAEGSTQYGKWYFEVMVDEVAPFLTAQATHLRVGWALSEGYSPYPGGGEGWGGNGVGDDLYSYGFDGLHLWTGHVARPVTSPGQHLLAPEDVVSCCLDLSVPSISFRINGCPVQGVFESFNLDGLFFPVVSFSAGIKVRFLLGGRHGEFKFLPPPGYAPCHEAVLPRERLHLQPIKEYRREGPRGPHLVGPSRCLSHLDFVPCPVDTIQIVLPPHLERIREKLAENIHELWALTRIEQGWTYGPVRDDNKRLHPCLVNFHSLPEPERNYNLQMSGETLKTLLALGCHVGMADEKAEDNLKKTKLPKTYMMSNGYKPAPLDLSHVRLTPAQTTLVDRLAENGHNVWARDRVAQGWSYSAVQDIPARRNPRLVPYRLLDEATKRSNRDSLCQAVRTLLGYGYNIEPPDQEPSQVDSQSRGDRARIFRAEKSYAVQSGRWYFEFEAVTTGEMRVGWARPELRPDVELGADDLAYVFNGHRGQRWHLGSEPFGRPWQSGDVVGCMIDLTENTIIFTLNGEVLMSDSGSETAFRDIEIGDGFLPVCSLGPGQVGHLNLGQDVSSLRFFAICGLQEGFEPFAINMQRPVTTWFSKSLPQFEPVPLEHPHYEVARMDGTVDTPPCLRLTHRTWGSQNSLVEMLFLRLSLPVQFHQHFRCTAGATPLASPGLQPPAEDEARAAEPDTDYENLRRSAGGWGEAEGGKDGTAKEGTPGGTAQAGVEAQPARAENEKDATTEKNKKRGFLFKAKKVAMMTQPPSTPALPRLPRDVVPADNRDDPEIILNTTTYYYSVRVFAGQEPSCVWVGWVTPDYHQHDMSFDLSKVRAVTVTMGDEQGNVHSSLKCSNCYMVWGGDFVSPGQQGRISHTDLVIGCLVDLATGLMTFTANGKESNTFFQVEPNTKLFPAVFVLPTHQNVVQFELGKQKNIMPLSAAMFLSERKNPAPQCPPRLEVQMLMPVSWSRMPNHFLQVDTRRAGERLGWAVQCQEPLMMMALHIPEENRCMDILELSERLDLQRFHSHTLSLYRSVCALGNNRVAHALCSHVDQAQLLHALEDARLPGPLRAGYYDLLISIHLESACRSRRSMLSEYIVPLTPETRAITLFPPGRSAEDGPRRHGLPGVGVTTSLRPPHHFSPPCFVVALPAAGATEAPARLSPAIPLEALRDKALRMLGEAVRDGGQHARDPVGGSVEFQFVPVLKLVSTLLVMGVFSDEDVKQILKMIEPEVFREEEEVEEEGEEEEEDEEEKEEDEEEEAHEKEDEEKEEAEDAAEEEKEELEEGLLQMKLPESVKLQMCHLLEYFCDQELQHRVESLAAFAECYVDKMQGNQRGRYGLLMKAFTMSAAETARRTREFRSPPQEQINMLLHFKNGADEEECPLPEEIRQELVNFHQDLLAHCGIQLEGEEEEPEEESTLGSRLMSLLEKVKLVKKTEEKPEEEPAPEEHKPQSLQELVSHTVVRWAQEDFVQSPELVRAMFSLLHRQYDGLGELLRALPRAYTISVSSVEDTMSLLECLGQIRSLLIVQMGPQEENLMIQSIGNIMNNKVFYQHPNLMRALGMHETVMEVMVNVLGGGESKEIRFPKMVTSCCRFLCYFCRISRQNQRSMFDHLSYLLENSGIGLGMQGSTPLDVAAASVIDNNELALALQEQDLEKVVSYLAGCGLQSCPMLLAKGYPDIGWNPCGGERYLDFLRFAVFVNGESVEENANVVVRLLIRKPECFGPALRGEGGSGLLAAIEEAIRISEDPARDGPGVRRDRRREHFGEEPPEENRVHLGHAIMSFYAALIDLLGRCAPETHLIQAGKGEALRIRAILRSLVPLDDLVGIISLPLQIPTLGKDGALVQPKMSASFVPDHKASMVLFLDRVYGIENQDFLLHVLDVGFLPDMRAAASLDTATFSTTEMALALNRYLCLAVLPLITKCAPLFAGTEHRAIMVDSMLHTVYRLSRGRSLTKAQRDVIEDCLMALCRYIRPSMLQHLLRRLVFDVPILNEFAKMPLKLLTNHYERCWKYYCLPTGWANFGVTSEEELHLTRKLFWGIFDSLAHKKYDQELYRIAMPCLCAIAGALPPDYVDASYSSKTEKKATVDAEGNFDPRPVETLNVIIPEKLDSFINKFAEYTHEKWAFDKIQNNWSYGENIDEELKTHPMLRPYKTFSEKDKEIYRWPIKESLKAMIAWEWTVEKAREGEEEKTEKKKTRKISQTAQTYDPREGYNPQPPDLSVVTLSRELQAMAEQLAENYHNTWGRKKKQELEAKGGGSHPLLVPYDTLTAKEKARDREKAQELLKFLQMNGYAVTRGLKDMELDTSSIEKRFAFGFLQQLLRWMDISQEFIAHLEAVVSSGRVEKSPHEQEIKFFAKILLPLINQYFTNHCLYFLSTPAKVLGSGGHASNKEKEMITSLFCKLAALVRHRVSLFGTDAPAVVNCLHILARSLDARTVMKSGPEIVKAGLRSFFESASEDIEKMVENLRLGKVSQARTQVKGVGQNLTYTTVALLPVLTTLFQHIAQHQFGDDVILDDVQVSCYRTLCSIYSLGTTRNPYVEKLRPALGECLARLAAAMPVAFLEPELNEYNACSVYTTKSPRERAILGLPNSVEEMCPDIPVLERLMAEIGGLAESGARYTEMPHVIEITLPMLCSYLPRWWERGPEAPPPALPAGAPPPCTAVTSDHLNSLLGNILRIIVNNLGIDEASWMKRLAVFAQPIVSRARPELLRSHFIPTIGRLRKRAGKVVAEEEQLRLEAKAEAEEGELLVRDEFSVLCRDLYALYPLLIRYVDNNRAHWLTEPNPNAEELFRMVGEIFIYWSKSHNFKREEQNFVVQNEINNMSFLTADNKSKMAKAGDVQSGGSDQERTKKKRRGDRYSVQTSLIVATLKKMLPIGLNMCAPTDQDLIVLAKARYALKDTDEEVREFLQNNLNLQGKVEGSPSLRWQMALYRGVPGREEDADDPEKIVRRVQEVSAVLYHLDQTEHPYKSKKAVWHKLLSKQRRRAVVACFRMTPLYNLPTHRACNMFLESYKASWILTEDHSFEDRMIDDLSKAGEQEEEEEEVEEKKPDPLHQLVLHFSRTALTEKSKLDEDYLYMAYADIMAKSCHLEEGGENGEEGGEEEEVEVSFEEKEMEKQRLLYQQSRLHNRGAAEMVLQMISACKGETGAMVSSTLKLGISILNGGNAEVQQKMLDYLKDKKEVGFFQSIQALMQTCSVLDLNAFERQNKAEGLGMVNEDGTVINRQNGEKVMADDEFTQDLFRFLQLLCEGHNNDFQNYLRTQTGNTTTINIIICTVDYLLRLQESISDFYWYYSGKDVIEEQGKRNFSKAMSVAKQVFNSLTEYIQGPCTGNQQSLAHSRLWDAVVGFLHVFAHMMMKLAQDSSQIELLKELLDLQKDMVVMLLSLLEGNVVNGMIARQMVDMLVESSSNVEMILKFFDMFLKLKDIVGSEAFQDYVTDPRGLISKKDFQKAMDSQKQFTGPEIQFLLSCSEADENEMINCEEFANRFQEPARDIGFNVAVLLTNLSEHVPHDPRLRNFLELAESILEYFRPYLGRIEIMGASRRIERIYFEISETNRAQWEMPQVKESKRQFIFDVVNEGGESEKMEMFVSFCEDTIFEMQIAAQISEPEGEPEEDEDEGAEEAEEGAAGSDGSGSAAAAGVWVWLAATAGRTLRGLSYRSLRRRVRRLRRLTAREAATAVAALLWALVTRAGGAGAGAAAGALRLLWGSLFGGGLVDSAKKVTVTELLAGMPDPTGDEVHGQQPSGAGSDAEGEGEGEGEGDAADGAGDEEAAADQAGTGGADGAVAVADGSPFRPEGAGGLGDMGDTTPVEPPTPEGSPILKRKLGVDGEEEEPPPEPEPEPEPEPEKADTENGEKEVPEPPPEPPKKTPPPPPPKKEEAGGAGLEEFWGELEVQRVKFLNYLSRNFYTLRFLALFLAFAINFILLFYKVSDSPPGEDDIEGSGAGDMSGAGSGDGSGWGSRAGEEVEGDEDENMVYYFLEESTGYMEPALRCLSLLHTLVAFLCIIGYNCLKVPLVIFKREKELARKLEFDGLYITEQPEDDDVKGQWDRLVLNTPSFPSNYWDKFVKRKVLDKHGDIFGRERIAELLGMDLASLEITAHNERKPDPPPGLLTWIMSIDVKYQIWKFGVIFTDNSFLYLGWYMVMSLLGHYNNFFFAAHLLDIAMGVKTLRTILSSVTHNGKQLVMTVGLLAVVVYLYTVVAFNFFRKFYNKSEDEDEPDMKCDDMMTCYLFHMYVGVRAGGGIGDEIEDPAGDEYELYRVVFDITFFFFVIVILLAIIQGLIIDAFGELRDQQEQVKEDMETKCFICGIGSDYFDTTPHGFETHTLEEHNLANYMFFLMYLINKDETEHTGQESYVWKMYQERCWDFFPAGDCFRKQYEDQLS

## CCCCCC1OC(=O)C(C)N(C)C(=O)C(CCCCC)OC(=O)C(C)N(C)C(=O)C(CCCCC)OC(=O)C(C)N(C)C(=O)C(CCCCC)OC(=O)C(C)N(C)C1=O (stereo not shown) [FKI-1033 substance]
[1]; insect (Periplaneta americana) vs mammalian (mouse) receptor
  potency of ryanodine binding inhibition against the insect ryanodine receptor versus the mammalian ryanodine receptor: more than ten times potent
[1]; read-out: ryanodine binding inhibition activity, IC50, crude ryanodine receptor fraction of Periplaneta americana, [9,21-3H](N) ryanodine, room temperature 90 min
  IC50: 4.2 µM
Solubility in solvent; methanol, ethanol, ethyl acetate and chloroform
  Solubility in solvent: Soluble
Solubility in solvent; water and n-hexane
  Solubility in solvent: Hardly soluble
[2]
  IC50: 53.9 µM
Caenorhabditis elegans
  growth inhibition of the nematodes (Caenorhabditis elegans): inhibited growth
[3]
  growth inhibition of the arthropods (Artemia salina): inhibited growth
